Measurements taken from patent US7569587B2, “Antibacterial mutilins” (Nabriva Therapeutics AG, priority 2000, dated 2009).

Test system: Staphylococcus
Experiment: Systemic infections of mice (Handbook of animal models of infection)
Type: in vivo
Settings: parenteral or oral administration, Probit analysis
Source text: The active compounds of the present invention show e.g. activity in systemic infections of mice determined according to the Handbook of animal models of infection.
ED50=Effective dosage in mg/kg body weight per application by which 50% of the treated animals are protected from death; calculated by Probit analysis (n=8 animals/group).

| Structure (SMILES) | ED50 (dosage by which 50% of the treated animals are protected from death) |
| --- | --- |
| C=CC1(C)CC(OC(=O)CS[C@H]2CCCN(C(=O)[C@H](N)C(C)C)C2)C2(C)C(C)CCC3(CCC(=O)C32)C(C)C1O (stereo partly drawn) [Example 1] | ~7.0 mg/kg body weight |
| C=CC1(C)CC(OC(=O)CSC2CCN(C(=O)[C@H](N)Cc3c[nH]cn3)C2)C2(C)C(C)CCC3(CCC(=O)C32)C(C)C1O (stereo partly drawn) [Example 6, 4-O—[(N—(R)-histidinyl-pyrrolidin-3-yl)sulfanylacetyl]mutilin] | about 11.0 mg/kg body weight |
| C=CC1(C)CC(OC(=O)CSC2CCN(C(=O)[C@H](N)C(C)C)C2)C2(C)C(C)CCC3(CCC(=O)C32)C(C)C1O (stereo partly drawn) [Example 5, 14-O—[(N-(3-methyl-2(R)-amino-butyryl)-pyrrolidine-3-yl)-sulfanylacetyl]-mutilin] | about 11.0 mg/kg body weight |
